Assay results published in patent US8952024B2, “Herbicidal pyrimidone derivatives” (E I du Pont de Nemours and Company, priority 2009, dated 2015).

Assays:
Assay type in all cases: in vivo
[1] = system: large crabgrass (Digitaria sanguinalis); assay: Test B pre-/postemergence plant response
Outline: (§1)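 Seeds were sown in loam soil/sand blend and treated preemergence with compound in non-phytotoxic solvent mixture containing surfactant; postemergence sprays, same formulation, went onto plants 2 to 18 cm (1- to 4-leaf stage) in peat-based planting medium. Greenhouse 13 to 15 days, then visual rating versus untreated controls, 0 (no effect) to 100 (complete control).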

[2] = system: Surinam grass (Brachiaria decumbens); assay: Test B pre-/postemergence plant response; conditions: for Plant response rating, Surinam Grass: Postemergence, scale 0 to 100 (0 no effect, 100 complete control)
Outline: as §1

[3] = system: ragweed (common ragweed, Ambrosia elatior); assay: Test B pre-/postemergence plant response; conditions: for Plant response rating, Ragweed: Postemergence, scale 0 to 100 (0 no effect, 100 complete control)
Outline: as §1

[4] = system: wild oat (Avena fatua); assay: Test B pre-/postemergence plant response
Outline: as §1

[5] = system: blackgrass (Alopecurus myosuroides); assay: Test B pre-/postemergence plant response
Outline: as §1

[6] = system: woolly cupgrass (Eriochloa villosa); assay: Test B pre-/postemergence plant response
Outline: as §1

[7] = system: soybean (Glycine max); assay: Test B pre-/postemergence plant response; conditions: for Plant response rating, Soybean: Postemergence, scale 0 to 100 (0 no effect, 100 complete control)
Outline: as §1

[8] = system: bermudagrass (Cynodon dactylon); assay: Test B pre-/postemergence plant response
Outline: as §1

[9] = system: Italian ryegrass (Lolium multiflorum); assay: Test B pre-/postemergence plant response; conditions: for Plant response rating, Ryegrass, Italian: Postemergence, scale 0 to 100 (0 no effect, 100 complete control)
Outline: as §1

[10] = system: corn (Zea mays); assay: Test B pre-/postemergence plant response
Outline: as §1

[11] = system: lambsquarters (Chenopodium album); assay: Test B pre-/postemergence plant response
Outline: as §1

[12] = system: velvetleaf (Abutilon theophrasti); assay: Test B pre-/postemergence plant response; conditions: for Plant response rating, Velvetleaf: Postemergence, scale 0 to 100 (0 no effect, 100 complete control)
Outline: as §1

[13] = system: johnsongrass (Sorghum halepense); assay: Test B pre-/postemergence plant response
Outline: as §1

[14] = system: yellow nutsedge (Cyperus esculentus); assay: Test B pre-/postemergence plant response
Outline: as §1

[15] = system: windgrass (Apera spica-venti); assay: Test B postemergence plant response; conditions: for Plant response rating, Windgrass: Postemergence, scale 0 to 100 (0 no effect, 100 complete control)
Outline: (§2)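 Plants grown in peat/vermiculite medium were sprayed postemergence at 2–18 cm height (1- to 4-leaf stage). After 13–15 days in the greenhouse, response was rated visually against untreated controls on a 0–100 scale (0 no effect, 100 complete control).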

[16] = system: chickweed (Stellaria media); assay: Test B postemergence plant response
Outline: as §2

[17] = system: canarygrass (Phalaris minor); assay: Test B postemergence plant response
Outline: as §2

[18] = system: winter barley (Hordeum vulgare); assay: Test B postemergence plant response
Outline: as §2

[19] = 31 g ai/ha, postemergence, scale 0 to 100, 0 is no effect, 100 is complete control
[20] = 62 g ai/ha, postemergence, 0 is no effect, 100 is complete control, 13 to 15 days
[21] = Postemergence, 125 g ai/ha, scale 0 to 100 (0 no effect, 100 complete control)
[22] = Postemergence, 250 g ai/ha, scale 0 to 100 (0 no effect, 100 complete control)

SMILES: O=C1CCCC(O)=C1C(=O)c1cnc(-c2ccsc2)n(CC2CCCO2)c1=O (stereo not drawn) [Compound 98]
- Plant response rating, Crabgrass, Large [1, 19]: 75
- Crabgrass, Large plant response rating (0 to 100 scale) [1, 20]: 75
- Plant response rating, Crabgrass, Large [1, 21]: 80
- Plant response rating, Crabgrass, Large [1, 22]: 95
- Surinam Grass plant response rating (0 to 100 scale) [2, 20]: 75
- Plant response rating, Surinam Grass ([2]; 125 g ai/ha): 85
- Plant response rating, Surinam Grass ([2]; 250 g ai/ha): 90
- Ragweed plant response rating (0 to 100 scale) [3, 20]: 75
- Plant response rating, Ragweed ([3]; 125 g ai/ha): 80
- Plant response rating, Ragweed ([3]; 250 g ai/ha): 90
- Plant response rating, Oat, Wild [4, 19]: 10
- Oat, Wild plant response rating (0 to 100 scale) [4, 20]: 20
- Plant response rating, Oat, Wild [4, 21]: 20
- Plant response rating, Oat, Wild [4, 22]: 50
- Plant response rating, Blackgrass [5, 19]: 0
- Blackgrass plant response rating (0 to 100 scale) [5, 20]: 5
- Plant response rating, Blackgrass [5, 21]: 20
- Plant response rating, Blackgrass [5, 22]: 50
- Plant response rating, Cupgrass, Woolly [6, 19]: 65
- Cupgrass, Woolly plant response rating (0 to 100 scale) [6, 20]: 70
- Plant response rating, Cupgrass, Woolly [6, 21]: 75
- Plant response rating, Cupgrass, Woolly [6, 22]: 95
- Soybean plant response rating (0 to 100 scale) [7, 20]: 98
- Plant response rating, Soybean ([7]; 125 g ai/ha): 98
- Plant response rating, Soybean ([7]; 250 g ai/ha): 100
- Plant response rating, Bermudagrass [8, 19]: 75
- Bermudagrass plant response rating (0 to 100 scale) [8, 20]: 80
- Plant response rating, Bermudagrass [8, 21]: 85
- Plant response rating, Bermudagrass [8, 22]: 98
- Ryegrass, Italian plant response rating (0 to 100 scale) [9, 20]: 5
- Plant response rating, Ryegrass, Italian ([9]; 125 g ai/ha): 15
- Plant response rating, Ryegrass, Italian ([9]; 250 g ai/ha): 15
- Plant response rating, Corn [10, 19]: 35
- Corn plant response rating (0 to 100 scale) [10, 20]: 35
- Plant response rating, Corn [10, 21]: 55
- Plant response rating, Corn [10, 22]: 70
- Plant response rating, Lambsquarters [11, 19]: 95
- Lambsquarters plant response rating (0 to 100 scale) [11, 20]: 98
- Plant response rating, Lambsquarters [11, 21]: 100
- Plant response rating, Lambsquarters [11, 22]: 100
- Velvetleaf plant response rating (0 to 100 scale) [12, 20]: 95
- Plant response rating, Velvetleaf ([12]; 125 g ai/ha): 95
- Plant response rating, Velvetleaf ([12]; 250 g ai/ha): 98
- Plant response rating, Johnsongrass [13, 19]: 55
- Johnsongrass plant response rating (0 to 100 scale) [13, 20]: 70
- Plant response rating, Johnsongrass [13, 21]: 75
- Plant response rating, Johnsongrass [13, 22]: 98
- Plant response rating, Nutsedge, Yellow [14, 19]: 50
- Nutsedge, Yellow plant response rating (0 to 100 scale) [14, 20]: 60
- Plant response rating, Nutsedge, Yellow [14, 21]: 70
- Plant response rating, Nutsedge, Yellow [14, 22]: 75
- Windgrass plant response rating (0 to 100 scale) [15, 20]: 20
- Plant response rating, Windgrass ([15]; 125 g ai/ha): 50
- Plant response rating, Windgrass ([15]; 250 g ai/ha): 70
- Plant response rating, Chickweed [16, 19]: 80
- Chickweed plant response rating (0 to 100 scale) [16, 20]: 80
- Plant response rating, Chickweed [16, 21]: 98
- Plant response rating, Chickweed [16, 22]: 100
- Plant response rating, Canarygrass [17, 19]: 5
- Canarygrass plant response rating (0 to 100 scale) [17, 20]: 20
- Plant response rating, Canarygrass [17, 21]: 35
- Plant response rating, Canarygrass [17, 22]: 50
- Plant response rating, Barley [18, 19]: 0
- Barley plant response rating (0 to 100 scale) [18, 20]: 5
- Plant response rating, Barley [18, 21]: 10
- Plant response rating, Barley [18, 22]: 15
